Among the data in PMC12163684, “Gunacins: Novel Benzo[g]chromene Derivatives from the Fungus Exobasidium sp. and Their Potent Anti-Leishmania and Trypanosoma Activities” (ACS Omega, 2025) are EC50 and MIC values, retold here.

What is called EC50 is the concentration at which the effect is half-maximal. As a reminder, the MIC is the lowest concentration that inhibits growth of the organism.

Assay [1] has as its system L. mexicana (MNYC/BZ/1962/M379) promastigote. The assay can be described thus: Anti-Leishmania activity, AB assay, axenic promastigotes. The assay is classed as cell-based. The procedure: (§1) Promastigote stages of L. mexicana (MNYC/BZ/1962/M379), a generous gift from Vyacheslav Yurchenko, were cultured in M199 medium pH 7.4 supplemented with 2 μg/mL biopterin, 2 μg/mL hemin, 25 mM HEPES, 100 U/mL penicillin/streptomycin, and 10% heat-inactivated FBS (BioSera) pH 7.4 at 25 °C. The amastigotes were differentiated in vitro from late log/stationary promastigote cultures and cultivated in Schneider’s Drosophila Medium (SIM) at pH 5.5, supplemented with 1.5 μg/mL hemin, 100 U/mL penicillin/streptomycin, and 20% heat-inactivated FBS (BioSera) at pH 5.5, at 32 °C, and 5% CO2. Following a three-day period, the promastigotes underwent a transformation into amastigotes, which were then maintained in SIM.
(§2) To estimate the EC50, the AB assay, as previously described, was employed. The results are expressed as EC50, representing the dose of the compound required to inhibit cellular growth by 50%. Each EC50 value is the mean ± the standard error of the mean derived from at least three separate experiments, each performed in duplicate.

The next assay concerns E. coli ATCC 3988. The experiment in a line: Minimum inhibitory concentration (MIC) testing, serial binary dilution in 96-well plates. The class given is cell-based. To be noted: Escherichia coli, ATCC3988; 24 h in the dark; lowest concentration with no live microorganisms. The procedure:
(§3) Minimum inhibitory concentration (MIC) testing of the extracts was performed using 96-well polypropylene plates against four different microorganisms: the Gram-positive bacterium K. rhizophila ATCC 9341, the Gram-negative bacterium E. coli ATCC 3988, and the yeasts C. albicans CCM 8215 and C. neoformans CCF 1081.
(§4) A working inoculum of each microorganism was prepared as follows: for E. coli and K. rhizophila, the inoculum was grown in LB medium (LB Broth, 25 g/L, incubated at 36 °C); for C. albicans and C. neoformans, YM6.3 medium (maltose extract 10 g, glucose 4 g, yeast extract 4 g per 1 L distilled water, incubated at 24 °C) with a cell concentration of approximately 5 × 10^5 cells/mL for all microorganisms was used.
(§5) Chloramphenicol served as a positive control for bacteria, while cycloheximide was used as a positive control for fungi. The gradient of the test substances was established by serial binary dilution across the wells. The MIC was determined by identifying the lowest concentration at which no live microorganisms were present. Cultivation was performed in the dark for 24 h.

The next assay has as its system K. rhizophila ATCC 9341. Described as above. The note with it: Kocuria rhizophila, ATCC9341; 24 h in the dark; lowest concentration with no live microorganisms. The class given is cell-based. The procedure: as §3, §4, §5
The subject of assay [2] is Madin–Darby canine kidney (MDCK) epithelial cell line. The assay can be described thus: Cytotoxicity on proliferating cells, crystal violet assay, OD590. The class given is cell-based. The note with it: Canis lupus familiaris, 24 h treatment, read-out: EC50 ± SEM MDCK. The procedure: (§6) MDCK and RAT cells were cultured in DMEM with 10% FBS at 37 °C in a 5% CO2 atmosphere as described previously. , To assess the toxic effects of the compounds on proliferating cells, cells were seeded in 24-well plates for 24 h to reach ∼15% confluence, and cells were treated in triplicate with increasing concentrations of the isolated compounds for an additional 24 h. Cells were washed with 1× PBS, fixed in staining solution (0.5% crystal violet, 20% methanol) for 10 min, and gently washed five times in 1× PBS. The fixed cells were then dissolved in lysis solution (0.1 M sodium citrate, 25% ethanol, pH 4.2) for 30 min, transferred to a 96-well plate in H2O, and the OD^590 was determined. EC50 values were determined using GraphPad Prism software and the dose–response fit equation. The EC50 values were determined from two independent experiments. Additionally, the impact of the isolated substances on the morphology of the HeLa adenocarcinoma cell line and primary human skin fibroblasts was examined by using fluorescence microscopy. Cells were cultured in DME medium supplemented with 10% FCS (Gibco, Invitrogen, Carlsbad, USA) on glass coverslips in 24-well plates until reaching approximately 50% confluence. The cells were treated with varying concentrations of isolated compounds dissolved in DMSO. Wells containing DMEM with DMSO served as the negative control. After 24 h cultivation, the cells were incubated with MitoTracker Red CMXRos (10 min) to label mitochondria, then fixed with 3.7% paraformaldehyde in PBS (20 min, room temperature), permeabilized with 0.1% Triton X-100 in PBS, and blocked with 1% BSA in PBS. The cells were then stained with Phalloidin-Alexa Fluor488 conjugate. All fluorescence reagents were purchased from Molecular Probes, Invitrogen, Carlsbad, CA, USA. Nuclei were stained with Fluoroshield DAPI (Sigma-Aldrich), and cells were examined using an IX71 microscope equipped with a DP70 camera and a 40× objective. Assays were performed at concentrations of 5, 25, 50, 100, and 125 μM.

For assay [3], the system named is RAT2 fibroblast cell line. Described as above. The class given is cell-based. The note with it: Rat2, 24 h, 24 h treatment, read-out: EC50 ± SEM RAT2. The procedure:
as §6

The test system of the next assay is C. neoformans CCF 1081. The experiment in a line: Minimum inhibitory concentration (MIC) testing, serial binary dilution in 96-well plates. The assay is classed as cell-based. The note with it: Cryptococcus neoformans, CCF1081; 24 h in the dark; n.d. = activity not detected; highest tested concentration 66.7 μM. The procedure: as §3, §4, §5
For another assay, the system named is C. albicans CCM 8215. The description is as above. The assay is classed as cell-based. To be noted: Candida albicans, CCM8215; 24 h in the dark; n.d. = activity not detected; highest tested concentration 66.7 μM. On the procedure: as §3, §4, §5
For assay [4], the system named is Trypanosoma congolense IL3000. The experiment in a line: Anti-trypanosomal activity, resazurin (AB assay), bloodstream form. The note with it: 72 h, axenic, 48 h + 24 h resazurin, read-out: EC50 T. congolense. The assay is classed as cell-based. The procedure:
(§7) The bloodstream forms of T. b. gambiense LiTat 1.3, T. b. brucei 427, and T. b. evansi AnTat 3/3 were grown in HMI-11 medium pH 7.3 supplemented with 36 mM sodium bicarbonate, 100 U/mL penicillin/streptomycin, and 10% fetal bovine serum at 37 °C and 5% CO2. The bloodstream form of Trypanosoma congolense IL3000 (generous gift from Liam Morrison) was cultured in TcBSF-1 medium pH 7.3 supplemented with 26 mM sodium bicarbonate, 25 mM HEPES, 5.5 mM glucose, 1 mM sodium pyruvate, 0.04 mM adenosine, 0.1 mM hypoxanthine, 0.02 mM thymidine, 0.02 mM bathocuproine, 2 mM L-glutamine, 0.2 mM 2-mercaptoethanol, 100 U/ml penicillin/streptomycin, and 20% goat serum New Zealand origin (Gibco) at 34 °C, 5% CO2. The assay for anti-trypanosomal activity was performed using the resazurin sodium salt dye (AB Assay) according to the published protocol in a 96-well plate format. Parasites at a number of 5 × 10^3 per well (T. b. brucei and T. b. gambiense) or 1 × 10^4 per well (T. b. evansi) were incubated with different drug concentrations (2-fold serial dilutions) in a volume of 200 μL of the medium. Medium with 1% DMSO (the highest concentration of the solvent used in the assay) was used to confirm no effect of the solvent on the cell growth. The plates were incubated for 48 h at the appropriate temperature. Then, 20 μL of resazurin sodium salt solution (0.125 mg/mL in 1× PBS, pH 7. 4) was added to each well, and the cells were incubated for another 24 h under the same conditions. The fluorescence signal was quantified using a Tecan Infinite M200 plate reader at excitation and emission wavelengths of 560 and 590 nm, respectively. The EC50 values were calculated using GraphPad Prism 9.5.1 by nonlinear regression with a variable slope. Each EC50 value is the mean ± standard error of the mean of three separate experiments performed in duplicate.

In a further assay the test system is T. b. brucei 427. Described as above. To be noted: Trypanosoma brucei, 72 h, axenic, 48 h + 24 h resazurin. The assay is classed as cell-based. On the procedure:
as §7
(In general: Resazurin is reduced to fluorescent resorufin, in cell work by metabolically active cells.)

For assay [5], the system named is L. mexicana (MNYC/BZ/1962/M379) amastigote. The experiment in a line: Anti-Leishmania activity, AB assay, axenic amastigotes. The class given is cell-based. On the procedure:
as §1, §2

Assay [6] deals with T. b. gambiense LiTat 1.3. The assay can be described thus: Anti-trypanosomal activity, resazurin (AB assay), bloodstream form. The note with it: Trypanosoma brucei, 72 h, axenic, 48 h + 24 h resazurin. The assay is classed as cell-based, T. brucei gambiense. The procedure: as §7
In another assay the test system is T. b. evansi AnTat 3/3. Described as above. The assay is classed as cell-based, T. brucei evansi. The note with it: Trypanosoma brucei, 72 h, axenic, 48 h + 24 h resazurin. On the procedure: as §7

Values after ≈ are worked out from the molar mass of the structure shown.

Turning to `C[C@@H]1[C@H](O)[C@@H](C)/C=C/C=C/C=C/C=C/C=C/C=C/C=C/[C@H](O[C@@H]2O[C@H](C)[C@@H](O)[C@H](N)[C@@H]2O)C[C@@H]2O[C@](O)(C[C@@H](O)C[C@@H](O)[C@H](O)CC[C@@H](O)C[C@@H](O)CC(=O)O[C@H]1C)C[C@H](O)[C@H]2C(=O)O` [amphotericin B, reference compound], in assay [1], the EC50 was found to be 0.1 µM.

Take `O=C(N[C@H](CO)[C@H](O)c1ccc([N+](=O)[O-])cc1)C(Cl)Cl` [chloramphenicol, reference compound]: the minimal inhibitory concentration (MIC) with E. coli ATCC 3988 and in the assay on K. rhizophila ATCC 9341 was 10.3 µM (≈ 3.33 µg/mL) each time.

For the molecule `COc1cc(O)c2c(c1)C(=O)C1=C(C2=O)[C@@H](O)[C@@H](O)[C@@H](C)O1` [Compound 4, (2R,3R,4R)-3,4,6-trihydroxy-8-methoxy-2-methyl-3,4-dihydro-2H-benzo[g]chromene-5,10-dione], the values for the EC50 in assay [2] and in [3] were 6 ± 1 µM and 5.1 ± 0.1 µM, respectively.

As to `COc1cc(O)c2c(c1)C(=O)C1=C(C[C@@H](O)[C@@H](C)O1)C2=O` [Compound 6, (2R,3R)-3,6-dihydroxy-8-methoxy-2-methyl-3,4-dihydro-2H-benzo[g]chromene-5,10-dione], the MIC with E. coli ATCC 3988 is 2.1 µM (≈ 0.61 µg/mL); with K. rhizophila ATCC 9341 it was 8.3 µM (≈ 2.41 µg/mL); against C. neoformans CCF 1081, 66.7 µM (≈ 19.4 µg/mL); in the assay with C. albicans CCM 8215 it was 66.7 µM (≈ 19.4 µg/mL). Besides, the EC50 stood at 25.2 µM in assay [1]; 9.2 µM in assay [4]; 5.1 µM with T. b. brucei 427; 5.5 µM in assay [5]; 8.6 µM in assay [6]; 7.2 ± 0.5 µM in assay [2]. Also, the EC50 in assay [3] was 6.7 ± 0.8 µM; in the assay on T. b. evansi AnTat 3/3, 2.4 µM.
